Results published in patent publication US12344623B2, “Thiazolopyridine derivatives as adenosine receptor antagonists” (Merck Patent GmbH, priority 2019, dated 2025).

What was measured:
Type in all cases: cell-based
mouse Pan T cells = test: mTcell assay, cAMP, agonist NECA; conditions: mouse Pan T cells, agonist NECA 1 uM
Procedure, shortened: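 Mouse splenic Pan T cells, pre-activated 48 hours with anti-CD3/CD28 beads, then plated at 50,000 cells/well in serum-free medium with 0.1% BSA. Compounds tested in 10-point dose response from 10 uM; after 30 minutes at 37° C, cAMP measured by HTRF.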

human A2A receptor = human A2A receptor (Homo sapiens, UniProt P29274); test: Functional A2A receptor activity, recombinant HEK293 cells, cAMP (HTRF), agonist NECA; design: expressed in transfected cells; host or cells: HEK293; conditions: read-out: Functional A2A receptor activity, HEK293, cAMP, IC50
human A2A receptor, sequence (P29274 whole entry): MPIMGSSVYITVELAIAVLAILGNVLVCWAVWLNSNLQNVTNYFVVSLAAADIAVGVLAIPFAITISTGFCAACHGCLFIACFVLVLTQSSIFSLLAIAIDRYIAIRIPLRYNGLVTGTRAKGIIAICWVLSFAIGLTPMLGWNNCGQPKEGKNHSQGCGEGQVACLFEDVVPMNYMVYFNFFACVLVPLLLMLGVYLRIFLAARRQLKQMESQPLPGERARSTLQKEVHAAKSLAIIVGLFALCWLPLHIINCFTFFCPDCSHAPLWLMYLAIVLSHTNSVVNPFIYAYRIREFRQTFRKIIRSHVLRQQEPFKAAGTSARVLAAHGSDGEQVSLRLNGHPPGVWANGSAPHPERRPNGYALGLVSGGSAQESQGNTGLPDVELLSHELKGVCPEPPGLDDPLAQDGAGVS
Procedure, shortened: (§1)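 Forskolin, test compounds and agonist were added together to the cells and incubated for 30 min. Cellular cAMP was then quantified by HTRF. Raw signals were normalized to an inhibitor control and a neutral DMSO control, and the normalized data were curve-fitted.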

human A2B receptor = target: T1, human A2B receptor (Homo sapiens, UniProt P29275); test: Functional A2B receptor activity, recombinant HEK293 cells, cAMP (HTRF), agonist NECA; conditions: read-out: Functional A2B receptor activity, HEK293, cAMP, IC50
T1 construct: expressed in transfected cells; host or cells: HEK293
T1 sequence (P29275 1-332): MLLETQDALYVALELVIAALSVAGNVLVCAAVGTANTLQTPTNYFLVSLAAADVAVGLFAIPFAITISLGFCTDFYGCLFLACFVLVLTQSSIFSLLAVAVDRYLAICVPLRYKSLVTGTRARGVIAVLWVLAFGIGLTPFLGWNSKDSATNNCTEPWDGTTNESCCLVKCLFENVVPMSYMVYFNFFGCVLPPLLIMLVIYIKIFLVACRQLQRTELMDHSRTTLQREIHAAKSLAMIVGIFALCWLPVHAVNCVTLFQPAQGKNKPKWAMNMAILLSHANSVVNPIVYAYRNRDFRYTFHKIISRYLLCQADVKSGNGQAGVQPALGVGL
Procedure, shortened: as §1

human A1 receptor = target: T2, human A1 receptor (Homo sapiens, UniProt P30542); test: Functional A1 receptor activity, recombinant CHO cells, cAMP (HTRF), forskolin, agonist CPA; conditions: recombinant CHO cells, forskolin, agonist CPA; read-out: Functional A1 receptor activity, CHO, cAMP, IC50
T2 construct: expressed in transfected cells; host or cells: CHO
T2 sequence (P30542 1-326): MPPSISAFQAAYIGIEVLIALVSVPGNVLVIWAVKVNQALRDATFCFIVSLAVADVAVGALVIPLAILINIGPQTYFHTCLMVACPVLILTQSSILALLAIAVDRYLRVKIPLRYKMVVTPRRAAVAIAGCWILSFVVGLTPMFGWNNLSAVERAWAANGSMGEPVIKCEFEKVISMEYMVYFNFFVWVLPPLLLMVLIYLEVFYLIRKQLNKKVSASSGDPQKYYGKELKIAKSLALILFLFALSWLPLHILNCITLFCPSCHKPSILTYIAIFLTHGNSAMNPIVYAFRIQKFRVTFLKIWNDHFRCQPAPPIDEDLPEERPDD
Procedure, shortened: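 Gi-coupled readout: CHO cells expressing human A1 or A3 receptor were treated with forskolin, test compound and agonist (CPA for A1, IB-MECA for A3) for 30 min; cellular cAMP was then measured by HTRF. Data were normalized to inhibitor and DMSO controls and curve-fitted.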

IC50 (mouse Pan T cells): < 10 nM | IC50 (human A2A receptor): < 10 nM | IC50 (human A2B receptor): < 10 nM | IC50 (human A1 receptor): > 1000 nM
SMILES: COc1ncc(C2=CCOCC2)c2sc(NC(=O)N3CC[C@@]4(CCCOC4)C3)nc12 [Compound 25, (S)-7-Oxa-2-aza-spiro[4.5]decane-2-carboxylic acid [7-(3,6-dihydro-2H-pyran-4-yl)-4-methoxy-thiazolo[4,5-c]pyridin-2-yl]-amide]
